Results as given in ChEMBL document CHEMBL1140418, “Synthesis of (2R,3S) 3-amino-4-mercapto-2-butanol, a threonine analogue for covalent inhibition of sortases” (Bioorg Med Chem Lett, 2005).
Active and inactive are the calls of the source. The rule behind the calls is not given here.

What was measured:
[1] = target: T1, Sortase A (Staphylococcus aureus) (UniProt Q9S446); experiment: Inhibitory activity against Sortase A
T1 sequence (whole entry): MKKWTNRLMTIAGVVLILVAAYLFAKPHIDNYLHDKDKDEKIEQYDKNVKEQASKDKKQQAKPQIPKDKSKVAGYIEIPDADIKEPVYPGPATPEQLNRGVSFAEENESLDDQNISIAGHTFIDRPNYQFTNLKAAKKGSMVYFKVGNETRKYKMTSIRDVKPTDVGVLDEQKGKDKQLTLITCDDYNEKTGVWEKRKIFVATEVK

[2] = target: T2, Sortase B (Staphylococcus aureus) (UniProt Q2FZE3); experiment: Inhibitory activity against Sortase B
T2 sequence (whole entry): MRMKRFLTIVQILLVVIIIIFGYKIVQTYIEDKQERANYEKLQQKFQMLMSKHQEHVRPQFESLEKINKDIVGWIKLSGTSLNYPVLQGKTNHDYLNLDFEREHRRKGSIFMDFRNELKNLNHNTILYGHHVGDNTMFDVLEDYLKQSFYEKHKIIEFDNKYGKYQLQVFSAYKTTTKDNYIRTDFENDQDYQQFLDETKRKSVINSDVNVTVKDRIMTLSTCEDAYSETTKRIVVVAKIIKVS

Row | Structure (SMILES) | Activity [1] | Activity [2]
1 | CC(C)C[C@H](NC(=O)OCc1ccccc1)C(=O)N1CCC[C@H]1C(=O)N[C@@H](C)C(=O)N[C@H](CS)[C@@H](C)O | Active | –
2 | C[C@@H](O)[C@@H](CS)NC(=O)[C@H](CCC(N)=O)NC(=O)[C@@H]1CCCN1C(=O)[C@H](CC(N)=O)NC(=O)OCc1ccccc1 | – | Active
